Data reported in publication PMC9853328, “Potent Platinum(IV) Prodrugs That Incorporate a Biotin Moiety to Selectively Target Cancer Cells” (Pharmaceutics, 2022).
Where two headings read alike, the source gives them in different places.

How the values were obtained:
[1] = test system: Du145 prostate cancer cells; design: method as in earlier work; conditions: MTT, same method, taken from the literature; ref [18],[46],[47]; read-out: GI50 ± SEM, Du145; cited from earlier work
[2] = test system: cisplatin-resistant ADDP ovarian (subclone of A2780) cancer cells; design: method as in earlier work; conditions: MTT, same method, taken from the literature; ref [18],[46],[47]; read-out: GI50 ± SEM, ADDP; cited from earlier work
[3] = test system: MIA pancreas cancer cells; design: method as in earlier work; conditions: MTT, same method, taken from the literature; ref [18],[46],[47]; read-out: GI50 ± SEM, MIA; cited from earlier work
[4] = test system: A2780 ovarian cancer cells; design: method as in earlier work; conditions: MTT, same method, taken from the literature; ref [18],[46],[47]; read-out: GI50 ± SEM, A2780; cited from earlier work
[5] = test system: non-cancerous MCF10A breast cell line; design: method as in earlier work; conditions: MTT, same method, taken from the literature; ref [18],[46],[47]; read-out: GI50 ± SEM, MCF10A; cited from earlier work
A431 skin cancer cells [6] = test system: A431 skin cancer cells; design: method as in earlier work; conditions: MTT, same method, taken from the literature; ref [18],[46],[47]; read-out: GI50 ± SEM, A431; cited from earlier work
[7] = test system: ADDP (subclone of A2780) versus A2780 ovarian cancer cell lines; experiment: Resistance factor, GI50 in ADDP/GI50 in A2780; assay type: cell-based
SJ-G2 glioblastoma cells [8] = test system: SJ-G2 glioblastoma cells; design: method as in earlier work; conditions: MTT, same method, taken from the literature; ref [18],[46],[47]; read-out: GI50 ± SEM, SJ-G2; cited from earlier work
[9] = test system: MCF-7 breast cancer cells; design: method as in earlier work; conditions: MTT, same method, taken from the literature; ref [18],[46],[47]; read-out: GI50 ± SEM, MCF-7; cited from earlier work
HT29 colon cancer cells [10] = test system: HT29 colon cancer cells; design: method as in earlier work; conditions: MTT, same method, taken from the literature; ref [18],[46],[47]; read-out: GI50 ± SEM, HT29; cited from earlier work
[11] = test system: BE2-C neuroblastoma cells; design: method as in earlier work; conditions: MTT, same method, taken from the literature; ref [18],[46],[47]; read-out: GI50 ± SEM, BE2-C; cited from earlier work
U87 glioblastoma cells [12] = test system: U87 glioblastoma cells; design: method as in earlier work; conditions: MTT, same method, taken from the literature; ref [18],[46],[47]; read-out: GI50 ± SEM, U87; cited from earlier work
H460 lung cancer cells [13] = test system: H460 lung cancer cells; design: method as in earlier work; conditions: MTT, same method, taken from the literature; ref [18],[46],[47]; read-out: GI50 ± SEM, H460; cited from earlier work
[14] = test system: cisplatin-resistant ADDP ovarian (subclone of A2780) cancer cells; experiment: MTT in vitro cytotoxicity assay, ADDP; assay type: cell-based; conditions: Homo sapiens, A2780, 72 h drug exposure, n = 3, read-out: GI50 ± SEM, ADDP
Protocol: (§1) The in vitro cytotoxicity assays were undertaken at Calvary Mater Hospital, Waratah, NSW, Australia, following a method previously published in the literature. A stock solution for each compound was prepared in DMSO (30 mM) and stored at −20 °C. The cell lines used in the study include HT29 colon, U87 glioblastoma, MCF-7 breast, A2780 ovarian, H460 lung, A431 skin, Du145 prostate, BE2-C neuroblastoma, SJ-G2 glioblastoma, MIA pancreas, and cisplatin-resistant ADDP ovarian (subclone of A2780) cancer cells, as well as the non-cancerous-derived MCF10A breast cell line. The cancer cell lines were cultured in a humidified atmosphere 5% CO2 at 37 °C and maintained in Dulbecco’s modified Eagle’s medium (Trace Biosciences, Sydney, Australia), supplemented with 10% foetal bovine serum, sodium bicarbonate (10 mM), penicillin (100 IU/mL), streptomycin (100 µg/mL), and glutamine (4 mM). The non-cancerous MCF10A cell line was maintained in DMEM:F12 (1:1) cell culture media, with 5% heat inactivated horse serum, supplemented with penicillin (50 IU/mL), streptomycin (50 µg/mL), glutamine (2 mM), HEPES (20 mM), epidermal growth factor (20 ng/mL), hydrocortisone (500 ng/mL), cholera toxin (100 ng/mL), and insulin (10 µg/mL). Cells were plated in duplicate in medium (100 µL) at a density of 2500–4000 cells per well in 96-well plates. On day 0, (24 h after plating) when the cells were in logarithmic growth, medium (100 μL) with or without the test agent was added to each well. The growth inhibitory effects were evaluated after 72 h drug exposure, using the MTT (3-(4,5-dimethylthiazol-2-yl)-2,5-diphenyltetrazolium bromide) assay, with the absorbance read at 540 nm. An eight-point dose–response curve was produced, which was used to determine the concentration at which growth was inhibited by 50% (GI50). This calculation was based on the difference between the optical density values on day 0 and those at the end of drug exposure. […] Experiments were conducted on three separate occasions and GI50 values were reported as the mean and standard error of the mean.

[15] = test system: A2780 ovarian cancer cells; experiment: MTT in vitro cytotoxicity assay, A2780; assay type: cell-based; conditions: Homo sapiens, A2780, 72 h drug exposure, n = 3, read-out: GI50 ± SEM, A2780
Protocol: as §1

SJ-G2 glioblastoma cells [16] = experiment: MTT in vitro cytotoxicity assay, SJ-G2; assay type: cell-based; conditions: SJ-G2, 72 h drug exposure, n = 3, read-out: GI50 ± SEM, SJ-G2
Protocol: as §1

[17] = test system: Du145 prostate cancer cells; experiment: MTT in vitro cytotoxicity assay, Du145; assay type: cell-based; conditions: Homo sapiens, DU-145; MTT, 72 h drug exposure, n = 3; read-out: GI50 ± SEM, Du145
Protocol: as §1

H460 lung cancer cells [18] = experiment: MTT in vitro cytotoxicity assay, H460; assay type: cell-based; conditions: Homo sapiens, NCI-H460, 72 h drug exposure, n = 3, read-out: GI50 ± SEM, H460
Protocol: as §1

[19] = test system: BE2-C neuroblastoma cells; experiment: MTT in vitro cytotoxicity assay, BE2-C; assay type: cell-based; conditions: Homo sapiens, BE(2)-C, 72 h drug exposure, n = 3, read-out: GI50 ± SEM, BE2-C
Protocol: as §1

[20] = test system: MIA pancreas cancer cells; experiment: MTT in vitro cytotoxicity assay, MIA; assay type: cell-based; conditions: 72 h drug exposure, n = 3, read-out: GI50 ± SEM, MIA
Protocol: as §1

U87 glioblastoma cells [21] = experiment: MTT in vitro cytotoxicity assay, U87; assay type: cell-based; conditions: 72 h drug exposure, n = 3, read-out: GI50 ± SEM, U87
Protocol: as §1

A431 skin cancer cells [22] = experiment: MTT in vitro cytotoxicity assay, A431; assay type: cell-based; conditions: Homo sapiens, A-431, 72 h drug exposure, n = 3, read-out: GI50 ± SEM, A431
Protocol: as §1

HT29 colon cancer cells [23] = experiment: MTT in vitro cytotoxicity assay, HT29; assay type: cell-based; conditions: Homo sapiens, HT-29; MTT, 72 h drug exposure, n = 3; read-out: GI50 ± SEM, HT29
Protocol: as §1

[24] = test system: non-cancerous MCF10A breast cell line; experiment: MTT in vitro cytotoxicity assay, MCF10A; assay type: cell-based; conditions: Homo sapiens, MCF-10A, 72 h drug exposure, n = 3, read-out: GI50 ± SEM, MCF10A
Protocol: as §1

[25] = test system: MCF-7 breast cancer cells; experiment: MTT in vitro cytotoxicity assay, MCF-7; assay type: cell-based; conditions: Homo sapiens, MCF7; MTT, 72 h drug exposure, n = 3; read-out: GI50 ± SEM, MCF-7

Compound | GI50 [1] [nM] | GI50 [2] [nM] | GI50 [3] [nM] | GI50 [4] [nM] | GI50 [5] [nM] | GI50 (A431 skin cancer cells [6]) [nM] | Resistance factor (RF) [7] | GI50 (SJ-G2 glioblastoma cells [8]) [nM] | GI50 [9] [nM] | GI50 (HT29 colon cancer cells [10]) [nM] | GI50 [11] [nM] | GI50 (U87 glioblastoma cells [12]) [nM] | GI50 (H460 lung cancer cells [13]) [nM] | further results
Cc1c(C)c2ccc[n+]3c2c2c1ccc[n+]2[Pt-2]31[NH2+][C@H]2CCCC[C@@H]2[NH2+]1.[Cl-].[Cl-] [56MESS(II)] | 10 ± 1.3 | 27 ± 4.1 | 22 ± 0.88 | 39 ± 7.7 | 25 ± 10 | 36 ± 11 | 0.692 | 150 ± 6.7 | 33 ± 12 | 15 ± 6.2 | 86 ± 3 | 76 ± 8.7 | 28 ± 4.7 | 
Cc1c(C)c2ccc[n+]3c2c2c1ccc[n+]2[Pt-2]31([OH])([OH])[NH2+][C@H]2CCCC[C@@H]2[NH2+]1.O=[N+]([O-])[O-].O=[N+]([O-])[O-] [56MESS(IV)] | 15 ± 2.6 | 170 ± 120 | 43 ± 2.5 | 56 ± 7.1 | 61 ± 7.3 | 120 ± 22 | 3.036 | 210 ± 45 | 480 ± 140 | 36 ± 7.1 | 240 ± 22 | 190 ± 23 | 190 ± 150 | 
O=C(O)CCCC[C@@H]1SC[C@@H]2NC(=O)N[C@@H]21 [Biotin, biotin] |  |  |  |  |  |  |  |  |  |  |  |  |  | GI50 [14]: > 50000 nM; GI50 [15]: > 50000 nM; GI50 (SJ-G2 glioblastoma cells [16]): > 50000 nM; GI50 [17]: > 50000 nM; GI50 (H460 lung cancer cells [18]): > 50000 nM; GI50 [19]: > 50000 nM; GI50 [20]: > 50000 nM; GI50 (U87 glioblastoma cells [21]): > 50000 nM; GI50 (A431 skin cancer cells [22]): > 50000 nM; GI50 (HT29 colon cancer cells [23]): > 50000 nM; GI50 [24]: > 50000 nM; GI50 [25]: > 50000 nM
N.N.O=C([O-])C1(C(=O)[O-])CCC1.[Pt+2] [Carboplatin, carboplatin] | 14700 ± 1200 | > 50000 | > 50000 | 9200 ± 2900 | > 50000 | 24300 ± 2200 |  | 5700 ± 200 | > 50000 | > 50000 | 18700 ± 1200 | > 50000 | 14000 ± 1000 | 
O=C1[O][Pt]2([NH][C@@H]3CCCC[C@H]3[NH]2)[O]C1=O [Oxaliplatin, oxaliplatin] | 2900 ± 400 | 822 ± 130 | 900 ± 200 | 160 |  | 4100 ± 500 | 5.138 | 3000 ± 1200 | 500 ± 100 | 900 ± 200 | 900 ± 200 | 1800 ± 200 | 1600 ± 100 | 
